Read-outs that look alike come from different tables or passages of the source.
Biological target: human Cav2.2 (Homo sapiens, UniProt Q00975)
Assay: Assessment of calcium channel activity using FLIPR (Ca2+ influx in IMR32 cells)
Format: cell-based
Summary of the method: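 IC50 values derive from nonlinear sigmoidal fitting of percent inhibition, relative to inhibitor-free activity, of Ca2+ influx read by FLIPR. Cells were IMR32 human neuroblastoma, plated at 1−1.2×10^5 per well and grown 48 h at 37 °C.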

[1] = read-out: IC50 (μM) or percent inhibition (* indicates 3 minute incubation, otherwise 60 minute), IC50, 60 minute pre-incubation with compound, IMR32 cells, 80 mM KCl depolarization

Sequence of human Cav2.2 (Q00975 whole entry): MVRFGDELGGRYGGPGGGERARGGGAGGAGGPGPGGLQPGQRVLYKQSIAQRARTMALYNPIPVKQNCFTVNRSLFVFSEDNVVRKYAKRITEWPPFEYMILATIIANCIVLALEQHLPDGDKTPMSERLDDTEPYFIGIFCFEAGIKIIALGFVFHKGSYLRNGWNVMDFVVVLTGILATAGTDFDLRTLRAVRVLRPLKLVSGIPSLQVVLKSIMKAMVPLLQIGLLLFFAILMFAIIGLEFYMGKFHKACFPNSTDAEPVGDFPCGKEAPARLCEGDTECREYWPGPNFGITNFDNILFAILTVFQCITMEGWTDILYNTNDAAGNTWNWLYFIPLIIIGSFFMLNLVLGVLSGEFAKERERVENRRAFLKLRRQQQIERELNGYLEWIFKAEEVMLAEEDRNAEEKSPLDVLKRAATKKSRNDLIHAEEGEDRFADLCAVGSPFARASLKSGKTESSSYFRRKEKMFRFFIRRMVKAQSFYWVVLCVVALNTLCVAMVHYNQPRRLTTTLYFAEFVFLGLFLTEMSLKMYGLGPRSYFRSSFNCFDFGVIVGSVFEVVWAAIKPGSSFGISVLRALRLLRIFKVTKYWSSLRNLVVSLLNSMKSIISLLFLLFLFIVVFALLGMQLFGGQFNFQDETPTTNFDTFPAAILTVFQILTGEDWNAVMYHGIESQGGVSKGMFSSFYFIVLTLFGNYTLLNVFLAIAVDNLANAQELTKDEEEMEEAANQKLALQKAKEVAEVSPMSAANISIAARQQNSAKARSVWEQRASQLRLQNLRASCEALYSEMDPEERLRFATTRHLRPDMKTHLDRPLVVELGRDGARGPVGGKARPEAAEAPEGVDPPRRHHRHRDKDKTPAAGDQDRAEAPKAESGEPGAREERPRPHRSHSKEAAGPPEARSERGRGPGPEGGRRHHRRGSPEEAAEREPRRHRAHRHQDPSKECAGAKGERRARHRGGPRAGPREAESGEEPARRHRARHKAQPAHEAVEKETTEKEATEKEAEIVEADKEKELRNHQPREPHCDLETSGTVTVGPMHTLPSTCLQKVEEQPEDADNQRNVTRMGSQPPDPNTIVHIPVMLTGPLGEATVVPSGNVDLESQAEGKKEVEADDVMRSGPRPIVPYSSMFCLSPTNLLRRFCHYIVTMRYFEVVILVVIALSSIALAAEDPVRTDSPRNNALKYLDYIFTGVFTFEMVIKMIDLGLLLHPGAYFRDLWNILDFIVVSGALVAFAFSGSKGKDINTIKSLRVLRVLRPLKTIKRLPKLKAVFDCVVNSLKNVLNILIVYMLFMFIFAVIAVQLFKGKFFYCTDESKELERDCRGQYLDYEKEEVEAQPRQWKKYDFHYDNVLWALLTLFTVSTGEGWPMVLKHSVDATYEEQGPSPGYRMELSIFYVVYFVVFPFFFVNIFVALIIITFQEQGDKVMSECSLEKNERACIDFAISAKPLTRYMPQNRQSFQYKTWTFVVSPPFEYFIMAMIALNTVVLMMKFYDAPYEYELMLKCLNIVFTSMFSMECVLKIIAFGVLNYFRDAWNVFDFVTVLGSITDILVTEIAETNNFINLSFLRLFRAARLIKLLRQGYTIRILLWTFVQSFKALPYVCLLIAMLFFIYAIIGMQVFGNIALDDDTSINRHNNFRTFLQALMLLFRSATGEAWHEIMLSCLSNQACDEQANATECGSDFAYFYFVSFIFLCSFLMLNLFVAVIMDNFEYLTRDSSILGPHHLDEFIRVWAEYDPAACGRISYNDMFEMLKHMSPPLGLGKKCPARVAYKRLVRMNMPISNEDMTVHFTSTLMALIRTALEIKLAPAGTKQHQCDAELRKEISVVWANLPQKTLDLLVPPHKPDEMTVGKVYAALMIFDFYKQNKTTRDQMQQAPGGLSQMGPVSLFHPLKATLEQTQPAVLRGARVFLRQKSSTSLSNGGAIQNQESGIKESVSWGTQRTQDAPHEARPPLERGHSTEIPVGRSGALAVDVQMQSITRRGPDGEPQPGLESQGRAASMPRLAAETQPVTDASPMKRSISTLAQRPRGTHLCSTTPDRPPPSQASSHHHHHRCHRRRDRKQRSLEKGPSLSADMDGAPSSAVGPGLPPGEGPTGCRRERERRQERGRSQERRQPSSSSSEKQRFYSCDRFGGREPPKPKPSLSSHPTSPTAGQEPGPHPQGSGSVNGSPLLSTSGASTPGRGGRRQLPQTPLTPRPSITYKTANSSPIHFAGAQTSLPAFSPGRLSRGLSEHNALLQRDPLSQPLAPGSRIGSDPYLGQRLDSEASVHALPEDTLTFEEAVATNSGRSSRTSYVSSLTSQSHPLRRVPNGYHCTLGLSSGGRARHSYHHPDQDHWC
Sequence of human Cav2.2 (P54289 25-956 partner limits assumed): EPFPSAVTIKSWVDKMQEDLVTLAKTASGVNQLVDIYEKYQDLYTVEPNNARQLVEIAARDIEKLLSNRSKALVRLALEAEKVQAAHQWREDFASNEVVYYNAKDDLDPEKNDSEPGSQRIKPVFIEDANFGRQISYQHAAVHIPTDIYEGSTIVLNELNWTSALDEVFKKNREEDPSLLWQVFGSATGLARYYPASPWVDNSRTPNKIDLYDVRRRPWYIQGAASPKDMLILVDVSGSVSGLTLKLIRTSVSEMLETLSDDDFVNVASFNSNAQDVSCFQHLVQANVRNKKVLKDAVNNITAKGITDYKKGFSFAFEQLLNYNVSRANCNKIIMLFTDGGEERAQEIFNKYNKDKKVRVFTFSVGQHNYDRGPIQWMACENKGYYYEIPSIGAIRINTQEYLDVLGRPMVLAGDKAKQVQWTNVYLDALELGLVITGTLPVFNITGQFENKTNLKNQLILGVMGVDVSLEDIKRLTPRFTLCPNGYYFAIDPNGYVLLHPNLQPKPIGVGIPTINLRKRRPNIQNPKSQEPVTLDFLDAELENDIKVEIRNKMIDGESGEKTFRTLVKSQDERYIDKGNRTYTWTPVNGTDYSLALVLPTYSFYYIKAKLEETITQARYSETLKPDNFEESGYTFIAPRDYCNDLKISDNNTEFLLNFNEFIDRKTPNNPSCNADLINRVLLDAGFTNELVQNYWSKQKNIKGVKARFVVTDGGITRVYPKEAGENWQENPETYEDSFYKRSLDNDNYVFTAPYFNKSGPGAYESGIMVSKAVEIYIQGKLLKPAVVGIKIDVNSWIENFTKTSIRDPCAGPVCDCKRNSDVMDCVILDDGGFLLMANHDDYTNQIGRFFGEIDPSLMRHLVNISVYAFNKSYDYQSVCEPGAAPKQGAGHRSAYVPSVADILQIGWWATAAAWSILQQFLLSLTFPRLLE
Sequence of human Cav2.2 (P54289 957-1103 partner limits assumed): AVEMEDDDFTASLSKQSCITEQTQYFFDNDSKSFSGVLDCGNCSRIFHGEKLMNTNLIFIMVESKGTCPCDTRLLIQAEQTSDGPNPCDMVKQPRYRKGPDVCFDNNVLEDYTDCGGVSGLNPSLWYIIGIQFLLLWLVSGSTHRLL
Sequence of human Cav2.2 (P54284 whole entry partner): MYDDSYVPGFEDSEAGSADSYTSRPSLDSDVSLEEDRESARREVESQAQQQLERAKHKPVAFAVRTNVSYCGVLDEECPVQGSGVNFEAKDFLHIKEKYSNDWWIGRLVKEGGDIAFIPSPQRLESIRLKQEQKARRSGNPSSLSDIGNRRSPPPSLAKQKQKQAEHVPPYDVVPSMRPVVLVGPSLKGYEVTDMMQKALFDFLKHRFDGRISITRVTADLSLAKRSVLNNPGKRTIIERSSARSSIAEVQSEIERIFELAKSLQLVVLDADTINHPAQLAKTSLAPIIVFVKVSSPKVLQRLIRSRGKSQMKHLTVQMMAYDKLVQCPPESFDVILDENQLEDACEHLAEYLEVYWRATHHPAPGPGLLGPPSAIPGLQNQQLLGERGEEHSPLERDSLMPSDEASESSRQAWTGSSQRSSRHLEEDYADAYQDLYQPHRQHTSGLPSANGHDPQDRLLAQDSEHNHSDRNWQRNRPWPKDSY

Molecule | IC50 | IC50 [1]
CC(C)(C)[C@H](N)C(=O)N[C@H]1CC[C@@H]2CN(Cc3ccccc3)C[C@@H]21 [Example 357, N^1-[(3aR,4S,6aS)-2-benzyloctahydrocyclopenta[c]pyrrol-4-yl]-3-methyl-L-valinamide] | > 30 µM | 
CC(C)C[C@H](NC(=O)OC(C)(C)C)C(=O)N[C@@H]1CC[C@@H]2CN(Cc3cccc(C(F)(F)F)c3)C[C@@H]21 (stereo in doubt) [Example 137, N^2-(tert-butyloxycarbonyl)-N^1-{(3aR*,4R*,6aS*)-2-[3-(trifluoromethyl)benzyl]octahydrocyclopenta[c]pyrrol-4-yl}-L-leucinamide] | 0.65 µM | 
O=C(N[C@@H]1CC[C@H]2CN(Cc3ccccc3)C[C@H]21)C(c1ccccc1)C1CCCC1 (relative stereo) [Example 8, N-[(3aS*,4R*,6aR*)-2-benzyloctahydrocyclopenta[c]pyrrol-4-yl]-2-cyclopentyl-2-phenylacetamide] |  | 1.07 µM
O=C(N[C@H]1CC[C@@H]2CN(c3cccc(C(F)(F)F)c3)C[C@@H]21)[C@@H]1C[C@@H](F)CN1 [Example 617, (4R)-4-fluoro-N-{(3aR,4S,6aS)-2-[3-(trifluoromethyl)phenyl]octahydrocyclopenta[c]pyrrol-4-yl}-L-prolinamide] | 2.57 µM | 
N^2-isopropyl-4-methyl-N^1-{(3aR,4S,6aS)-2-[2-(methylsulfonyl)pyrimidin-5-yl]octahydrocyclopenta[c]pyrrol-4-yl}-L-leucinamide [Example 493] |  | 5.08 µM

Results, then the molecule that gave them:

IC50 | IC50 [1] | Molecule
0.46 µM |  | CC(C)(C)C[C@H](NCC1CC1)C(=O)N[C@H]1CC[C@@H]2CN(c3ccc(C(F)(F)F)cn3)C[C@@H]21 [Example 478, N^2-(cyclopropylmethyl)-4-methyl-N^1-{(3aR,4S,6aS)-2-[5-(trifluoromethyl)pyridin-2-yl]octahydrocyclopenta[c]pyrrol-4-yl}-L-leucinamide]
 | 1.59 µM | CC(C)[C@@H](CC(=O)N[C@H]1CC[C@@H]2CN(S(=O)(=O)c3cccc(C(F)(F)F)c3)C[C@@H]21)N(C)C [Example 498, (3R)-3-(dimethylamino)-4-methyl-N-((3aR,4S,6aS)-2-{[3-(trifluoromethyl)phenyl]sulfonyl}octahydrocyclopenta[c]pyrrol-4-yl)pentanamide]
 | 1.46 µM | CC(C)[C@H](N)CC(=O)N[C@@H]1CC[C@H]2CN(S(=O)(=O)c3cccc(C(F)(F)F)c3)C[C@H]21 [Example 397, (3R)-3-amino-4-methyl-N-((3aS,4R,6aR)-2-{[3-(trifluoromethyl)phenyl]sulfonyl}octahydrocyclopenta[c]pyrrol-4-yl)pentanamide]
0.63 µM |  | CN[C@@H](CC(C)C)C(=O)N[C@H]1CC[C@@H]2CN(c3ccccc3C(F)(F)F)C[C@@H]21 [Example 618, N^2-methyl-N-{(3aR,4S,6aS)-2-[2-(trifluoromethyl)phenyl]octahydrocyclopenta[c]pyrrol-4-yl}-L-leucinamide]
 | 4.44 µM | CC(C)C[C@H](NS(=O)(=O)c1ccccc1)C(=O)N[C@@H]1CC[C@H]2CN(Cc3cccc(C(F)(F)F)c3)C[C@H]21 [Example 523, N^2-(phenylsulfonyl)-N^1-{(3aS,4R,6aR)-2-[3-(trifluoromethyl)benzyl]octahydrocyclopenta[c]pyrrol-4-yl}-L-leucinamide]
1.01 µM |  | Cc1c[nH]c(C(=O)N[C@H]2CC[C@@H]3CN(c4cccc(C(F)(F)F)n4)C[C@@H]32)c1 [Example 572, 4-methyl-N-{(3aR,4S,6aS)-2-[6-(trifluoromethyl)pyridin-2-yl]octahydrocyclopenta[c]pyrrol-4-yl}-1H-pyrrole-2-carboxamide]
1.1 µM |  | COc1ccc2[nH]cc(CN[C@H]3CC[C@@H]4CN(c5cccc(C(F)(F)F)n5)C[C@@H]43)c2c1 [Example 685, (3aR,4S,6aS)-N-[(5-methoxy-1H-indol-3-yl)methyl]-2-[6-(trifluoromethyl)pyridin-2-yl]octahydrocyclopenta[c]pyrrol-4-amine]
